Literature values, collected in US20070065511A1, “Controlled delivery creatine formulations and method of using the same” (priority 2004, published 2007).
Where two headings read alike, the source gives them in different places.

Tests used:
[1] = ingestion of 20 to 30 g per day for several days

| Structure (SMILES) | increase in human skeletal muscle total creatine content [1] | SC/fibre, time effect from baseline (satellite cell (SC); week 4 of supplementation and resistance training) | SC/fibre, time effect from baseline (satellite cell (SC); week 8 of supplementation and resistance training) | SC/fibre compared to baseline (satellite cell (SC); week 16) |
| --- | --- | --- | --- | --- |
| CN(CC(=O)O)C(=N)N.O [creatine monohydrate] | greater than 20% |  |  |  |
| CN(CC(=O)O)C(=N)N [CRE, creatine] |  | 111% | 93% | no difference |
